The text below walks through data of US9295679B2, “Prodrugs of C-17-heteroaryl steroidal CYP17 inhibitors/antiandrogens: synthesis, in vitro biological activities, pharmacokinetics and antitumor activity” (University of Maryland, Baltimore, priority 2008, dated 2016).

The term GI50 denotes the concentration that inhibits growth by half.

For one data set, the system named is DU-145. The data set is described as follows: MTT cell viability assay, DU-145. It counts as cell-based. To be noted: for GI90 / GI50: DU-145, MTT, 96 hours exposure. Here is the method: (§1) All cell lines were obtained from American Type Culture Collection (Rockville, Md.) and maintained in RPMI 1640 media supplemented with 10% fetal bovine serum and 5% penicillin/streptomycin solution. Cells were grown as a monolayer in a humidified incubator (5% CO2) at 37° C. To determine the effect of the compounds on cell proliferation, cells were plated (2500 cells/well) in 96-well cell culture dishes (Corning, Inc. Corning, N.Y.). After a 24 hr attachment period, media was replaced with fresh media containing compounds (0.01 μM-100 μM) or vehicle (95% ethanol). The cells were then allowed to grow in the presence of the drugs for 96 hours. After 96 hours, relative cell viability was assessed using the MTT reagent (3-(4,5-dimethylthiazol-2-yl)-2,5-diphenyltetrazolium bromide) as described in Patel, et al. 2004^43. Experiments were carried out three times with six replicates per dose per experiment (n=18). Results were plotted using the average of each dose over all three experiments and fitted with a best-fit sigmoidal dose response variable slope curve using GraphPad Prism 4.01 (GraphPad Software, Inc.). […] Combination index (CI) was calculated as previously described^44. CI values less than 1 are considered synergistic.
A general note: Formazan colour is commonly taken as a measure of viable cells.

The next data set concerns LNCaP. The data set can be described thus: MTT cell viability assay, LNCaP. Particulars: 96 hours exposure; for GI50: Homo sapiens. It counts as cell-based, human. As for the experimental part:
as §1

In the next data set the test system is PC-3. The data set is described as follows: MTT cell viability assay, PC-3. The format is cell-based. To be noted: for GI50 / GI90: MTT, 96 hours exposure. Here is the method: Cells were grown as a monolayer in a humidified incubator (5% CO2) at 37° C. To determine the effect of the compounds on cell proliferation, cells were plated (2500 cells/well) in 96-well cell culture dishes (Corning, Inc. Corning, N.Y.). […] The cells were then allowed to grow in the presence of the drugs for 96 hours. […] Experiments were carried out three times with six replicates per dose per experiment (n=18). […] Combination index (CI) was calculated as previously described^44. CI values less than 1 are considered synergistic.

The test system of data set [1] is PC-3 cells. The data set is described as follows: Absolute [Ca2+]i in PC-3 cells (Fura-2AM). It counts as cell-based. To be noted: 20 μM DHA, 2 hours. As for the experimental part:
PC-3 Cells were loaded with either fura-2 or fluo-3 indicator by incubation with 2 μM fura-2/AM or 2 μM fluo-3/AM in RPMI 1640 medium containing 10% fetal bovine serum for >60 min at room temperature. During experiments, the coverslips were mounted in a flow chamber and superfused with oxygenated Locke solution containing (in mM): 10 glucose, 136 NaCl, 5.6 KCl, 1.2 NaH2PO4, 14.3 NaHCO3, 1.2 MgCl2, and 2.2 CaCl2, pH 7.4, at room temperature (22-24° C.).
Cells loaded with fura-2 were placed in a perfusion chamber mounted on an inverted microscope (TE200; Nikon, Tokyo, Japan) equipped with a UV-transmitting objective (SuperFluor, 40×, N.A. 1.4, Nikon). Fura-2 was alternately excited by 340 nm and 380 nm light from monochrometers (Deltascan Illumination System, Photonic Technology International (PTI), South Brunswick, N.J.) and fura-2 emission was passed through a 515 nm longpass filter before detection by a cooled CCD camera (Retiga 2000R, Q-Imaging, Burnaby, Canada). For measurement of Ca^2+ transients in individual cells, coverslips with fluo-3 loaded cells were excited by the output of a 100 W mercury arc lamp that passed through a 480 nm bandpass filter (30 nm bandwidth). Fluorescence emission was passed through a 515 nm longpass filter before capture by a cooled CCD camera (Retiga 2000R, Q-Imaging). Image acquisition was performed with QCapture Pro (Q-Imaging) and analysis was performed with ImageJ (U.S. National Institutes of Health, Bethesda, Md., USA).
Fluo-3 Ca^2+ indicator measurements are reported as the fractional change in fluorescence intensity relative to baseline (ΔF/F0), which was determined as follows. Within a temporal sequence of fluorescence images, a region of interest (ROI) was drawn around each cell to be analyzed. The fluorescence signal from each cell was calculated as the pixel-averaged intensity within each ROI. In these experiments, a slight downward drift in baseline was typically observed, which was principally attributable to photo-bleaching of the indicator. In such cases, the drift was always well fit by a low-amplitude single-exponential decay. The fitted baseline value (F0) at every time point was then used to calculate ΔF/F0. ΔF/F0 values are reported as mean±SE. For fura-2 measurements, [Ca^2+]i was derived using the ratio method of Grynkiewicz et al.^46

The test system of data set [2] is PC-3 cells. The data set is described as follows: Western blot of ERSR related proteins in PC-3 cells. The format is cell-based. To be noted: 20 μM DHA, PC-3. As for the experimental part: Protein was isolated, subjected to SDS-PAGE, transferred and imaged as previously described^45. All primary antibodies were purchased from Cell Signaling (Danvers, Mass.). Quantitation of relative protein expression was determined via densitometry using the software ImageQuant 5.0 (Molecular Dynamics) with each protein normalized to its respective loading control. Results represent the average of at least three independent experiments, with representative blots shown.
In general terms: Immunoblotting shows a protein as a band on a membrane.

The conditions of data set [3]: given clinically as the prodrug abiraterone acetate; cited from earlier work.
The conditions of data set [4]: mice, s.c. 50 mg/kg, cited from earlier work.

Where only a bound is given, the exact number is not on record here.

Regarding `C[C@]12CC[C@H](O)CC1=CC[C@@H]1[C@@H]2CC[C@]2(C)C(n3cncn3)=CC[C@@H]12` [Compound 16, 3β-Hydroxy-17-(1H-1,2,4-triazol-1-yl)androsta-5,16-diene], the GI90 in the data set on DU-145, in the data set with LNCaP and with PC-3 was >100 µM throughout. Also, the 50% growth inhibitory concentration (GI50) came to 11 µM in the data set with DU-145 (Homo sapiens), 1.05 µM in the data set on LNCaP and 2.91 µM with PC-3 (Homo sapiens).
As for `C[C@]12CC[C@H](O)CC1=CC[C@@H]1[C@@H]2CC[C@]2(C)C(=O)CC[C@@H]12` [DHEA, dihydroandrosterone, reference compound], the GI50 in the data set on DU-145 was > 100 µM. Also, the “growth inhibitory activity against DU-145 cells” value with DU-145 (up to 100 μM) was “lacked any growth inhibitory activity”. For the same molecule, in the data set with PC-3, the “fold less potent than Compound 5 in inhibiting PC-3 cells” value is ~10 fold, the GI50 was determined as 67.6 µM and the GI90 is >100 µM. Also, the “effect on [Ca2+]i” value with PC-3 cells [1] is reported as “did not have a significant effect”. Besides, the “effect on the protein markers measured” value with PC-3 cells [2] is “no significant effect”.
Turning to `C[C@]12CC[C@H](O)CC1=CC[C@@H]1[C@@H]2CC[C@]2(C)C(n3ccnc3)=CC[C@@H]12` [Compound 17, 3β-Hydroxy-17-(1H-imidazol-1-yl)androsta-5,16-diene], the figures for the GI90 in the data set with DU-145, in the data set with LNCaP and with PC-3 were 31.62 µM, 36.49 µM and 30.41 µM, respectively. Also, the values for the GI50 with DU-145 (Homo sapiens), with LNCaP and in the data set with PC-3 (Homo sapiens) were 5.31 µM, 2.47 µM and 1.86 µM, respectively.
As to `C[C@]12CC[C@H](O)CC1=CC[C@@H]1[C@@H]2CC[C@]2(C)C(c3cccnc3)=CC[C@@H]12` [Abiraterone, abiraterone, reference compound], the GI90 is >100 µM in the data set with DU-145, 25.12 µM in the data set on LNCaP and >100 µM with PC-3. Moreover, the peak plasma concentrations result in data set [3] is on record as “below 1 μM”.
With `C[C@]12CCC(=O)C=C1CC[C@@H]1[C@@H]2CC[C@]2(C)C(n3cnc4ccccc43)=CC[C@@H]12` [Compound 6, 17-(1H-benzimidazole-1-yl)androsta-4,16-diene-3-one], the GI90 in the data set on DU-145 amounted to 15.53 µM; with LNCaP, 13.46 µM; in the data set with PC-3 it was 8.07 µM. The terminal half-lives in data set [4] (plasma) is 39.93 min. Besides, in data set [4], the “detectability in plasma at 8 hours” value is “neither was detectable”. The peak plasma levels in data set [4] is recorded as 5.15 ng/mL.
